Data published in ChEMBL document CHEMBL4513161, “CO-ADD screening of MMV (CH) - Pandemic Response Box” (2021).
≈ marks a conversion by molar mass, not a printed value. Structures can show the parent of a compound that is named as a salt.

Experiments:
HEK293 = test: cells; format: functional, Homo sapiens, ATCC CRL1573; conditions: Homo sapiens, ATCC CRL1573, HEK293; ASSAY_TEST Inhibition of Cell Viability; detection method Resazurin; Fluorescence (ex560/em590); MEDIA DMEM with 10% FBS; plate type 384well; TC; CORNING #3712; time 18 hr; read-out: CC50
Pseudomonas aeruginosa [1] = test: Antibacterial activity against Pseudomonas aeruginosa PAO397 [PAO1 d(mexAB-oprM) d(mexCD-oprJ) d(mexEF-oprN) d(mexJKL) d(mexXY) d(opmH)] (CO-ADD:GN_211); MIC in CAMBH media using NBS plates, by OD(600); format: functional; conditions: ASSAY_TEST Inhibition of Bacterial Growth, detection method Absorption (OD600), MEDIA CAMHB, plate type 384well, CORNING #3640, time 18 hr
Staphylococcus aureus = test: microbe, parasite or virus in culture; conditions: ATCC 43300, 18 h, ASSAY_TEST Inhibition of Bacterial Growth, detection method Absorption (OD600), MEDIA CAMHB, plate type 384well, NBS, CORNING #3640
Description: Antibacterial activity against Staphylococcus aureus MRSA ATCC 43300 (CO-ADD:GP_020); MIC in CAMBH media, using NBS plates, by OD(600)

Escherichia coli = test: microbe, parasite or virus in culture; conditions: ATCC 25922, 18 h, ASSAY_TEST Inhibition of Bacterial Growth, detection method Absorption (OD600), MEDIA CAMHB, plate type 384well, NBS, CORNING #3640
Description: Antibacterial activity against Escherichia coli ATCC 25922 (CO-ADD:GN_001); MIC in CAMBH media using NBS plates, by OD(600)

Klebsiella pneumoniae = test: microbe, parasite or virus in culture; conditions: ATCC 700603, 18 h, ASSAY_TEST Inhibition of Bacterial Growth, detection method Absorption (OD600), MEDIA CAMHB, plate type 384well, NBS, CORNING #3640
Description: Antibacterial activity against Klebsiella pneumoniae MDR ATCC 70063 (CO-ADD:GN_003); MIC in CAMBH media using NBS plates, by OD(600)

Pseudomonas aeruginosa [2] = test: microbe, parasite or virus in culture; conditions: ATCC 27853, 18 h, ASSAY_TEST Inhibition of Bacterial Growth, detection method Absorption (OD600), MEDIA CAMHB, plate type 384well, NBS, CORNING #3640
Description: Antibacterial activity against Pseudomonas aeruginosa ATCC 27853 (CO-ADD:GN_042); MIC in CAMBH media using NBS plates, by OD(600)

Acinetobacter baumannii = test: microbe, parasite or virus in culture; conditions: ATCC 19606, 18 h, ASSAY_TEST Inhibition of Bacterial Growth, detection method Absorption (OD600), MEDIA CAMHB, plate type 384well, NBS, CORNING #3640
Description: Antibacterial activity against Acinetobacter baumannii ATCC 19606 (CO-ADD:GN_034); MIC in CAMBH media using NBS plates, by OD600

Candida albicans = test: microbe, parasite or virus in culture; conditions: ATCC 90028, ASSAY_TEST Inhibition of Fungal Growth, detection method Absorption (OD530), plate type 384well, NBS, CORNING #3640
Description: Antifungal activity against Candida albicans ATCC 90028 (CO-ADD:FG_001); MIC in YNB media using NBS plates, by OD630

Description for Cryptococcus neoformans: Antifungal activity against Cryptococcus neoformans H99 ATCC 208821 (CO-ADD:FG_002); MIC in YNB media using NBS plates, by Resazurin OD(600-570)

Row | Structure (SMILES) | CC50 (HEK293) [µM] | MIC (Pseudomonas aeruginosa [1]) [µM] | MIC (Cryptococcus neoformans) [µM] | MIC (Staphylococcus aureus) [µM] | MIC (Escherichia coli) [µM] | MIC (Klebsiella pneumoniae) [µM] | MIC (Pseudomonas aeruginosa [2]) [µM] | MIC (Acinetobacter baumannii) [µM] | MIC (Candida albicans) [µM]
1 | CN(C(=O)C1(c2ccc(Cl)cc2)CCC1)c1ccccc1 | > 20 | > 20 | > 20 | > 20 | > 20 | > 20 | > 20 | > 20 | > 20
2 | O=C(O)c1cc(-c2ccc(Br)cc2)nc2ccc(Cl)cc12 | > 20 | > 20 | > 20 | > 20 | > 20 | > 20 | > 20 | > 20 | > 20
3 | COc1cc(C(C(=O)NC2CCCCC2)N(C(=O)Cc2c[nH]c3ccccc23)c2ccc(C(C)C)cc2)cc(OC)c1OC (configuration not stated) | > 20 | > 20 | > 20 | > 20 | > 20 | > 20 | > 20 | > 20 | > 20
4 | CNC(=O)C1O[C@@H](n2cnc3c(NCc4cccc(I)c4)nc(Cl)nc32)[C@H](O)[C@@H]1O (some centres not stated) | 18.3 | > 20 | > 20 | > 20 | > 20 | > 20 | > 20 | > 20 | > 20
5 | Oc1c(C(Nc2nc3ccccc3s2)c2ccc(OC(F)F)cc2)ccc2cccnc12 (configuration not stated) | 9.22 | > 20 | > 20 | > 20 | > 20 | > 20 | > 20 | > 20 | > 20
6 | Cc1ccc(Oc2ccccc2-c2csc(N=C3NCCCN3)n2)c(C)c1 [ABAFUNGIN] | > 20 | > 20 | > 20 | > 20 | > 20 | > 20 | > 20 | > 20 | 0.312 (≈ 0.118 µg/mL)
7 | Nc1nc2c(ncn2COCCO)c(=O)[nH]1 [ACYCLOVIR] | > 20 | > 20 | > 20 | > 20 | > 20 | > 20 | > 20 | > 20 | > 20
8 | CCCCC(CC)CNC(=N)NC(=N)NCCCCCCNC(=N)NC(=N)NCC(CC)CCCC (configuration not stated) [ALEXIDINE DIHYDROCHLORIDE] | 2.61 | 5 | ≤ 0.156 | ≤ 0.156 | 1.25 | 5 | 5 | 10 | 0.625
9 | OB1OCc2cc(Cl)ccc21 [AN-2718] | > 20 | > 20 | > 20 | > 20 | > 20 | > 20 | > 20 | > 20 | 5 (≈ 0.842 µg/mL)
10 | NCC(=O)Nc1ccc(-n2nc(C(F)(F)F)cc2-c2ccc3c(ccc4ccccc43)c2)cc1 [AR-12] | 6.68 | > 20 | > 20 | > 20 | > 20 | > 20 | > 20 | > 20 | > 20
11 | COc1nc2ccc(Br)cc2cc1[C@@H](c1ccccc1)[C@@](O)(CCN(C)C)c1cccc2ccccc12 [BEDAQUILINE] | > 20 | > 20 | > 20 | > 20 | > 20 | > 20 | > 20 | > 20 | > 20
12 | CCc1oc2ccccc2c1C(=O)c1ccc(O)cc1 [BENZARONE] | > 20 | > 20 | > 20 | > 20 | > 20 | > 20 | > 20 | > 20 | > 20
13 | C[C@@]1(O)[C@H](O)[C@@H](CO)O[C@H]1n1ccc2c(N)ncnc21 [BETA-2'-C-METHYL-7-DEAZA-ADENOSINE] | > 20 | > 20 | > 20 | > 20 | > 20 | > 20 | > 20 | > 20 | > 20
